Results reported in patent US20260207637A1, “MODULATOR FOR PROMOTING BINDING OF BUTYROPHILIN 3A1/2A1” (priority 2023, published 2026).
pEC50: −log10 of the molar value. Where two headings read alike, the source gives them in different places.

What was measured:
[1] = Pharmacokinetic test in cynomolgus monkeys; assay type: in vivo; settings: IV 2 mg/kg
Method: The control compound 2 and compound 19 were formulated into 1 mg/mL solution in 10% DMSO/90% PBS. Cynomolgus monkeys were obtained from Suzhou Leo Bio Technology Co., Ltd. The control compound 2 and compound 19 were administered intravenously at 2 mg/kg, respectively. The blood collected before administration was recorded as zero point. Then 1 mL of blood was collected at eight time points: 0.083, 0.15, 0.5, 1.0 2.0, 4.0, 8.0, and 24.0, respectively. 1 mL of the collected whole blood was placed in a labeled EDTA-2K anticoagulant tube. After gently inverting up and down to fully mix the anticoagulant (EDTA-2K) with the blood, it was immediately placed in wet ice and centrifuged within 30 minutes to separate the plasma. The centrifugation conditions were set to 4° C., 2200 g, and 6 min. The plasma separated after centrifugation was placed in a labeled EP tube, and the content of compound 19 and control compound 2 in the plasma samples at different time points were detected and analyzed. There were 3 male cynomolgus monkeys in each group.

[2] = Stability experiment of compounds in human whole blood; assay type: in vitro ADME; settings: whole blood (sodium heparin), 37° C., 0-4 h, read-out: T1/2 in human whole blood (converted)
Method: • (1) An appropriate amount of blank whole blood was added into an EP tube containing sodium heparin, then added the working solution of the test substance to a final concentration of 1 μM, and mixed by vortex; • (2) The sample was placed in a water bath at 37° C. with two parallel experiments; for one experiment, the time points were 0 h, 0.5 h, 1 h, 2 h, and 4 h; another experiment was performed to obtain the absolute zero point, which was compared with the 0 h point. • (3) An appropriate amount of sample was taken out from the incubation system, to which 300 μL of internal standard precipitant was added for protein precipitation; (4) all samples were centrifuged at 6° C. for 10 min (15700×g). • (5) 150 μL of the supernatant was taken out, to which 150 μL of water was added, which was mixed by vortex, and analyzed by LC-MS/MS. The stability data of compounds in human whole blood is as follows: […]

[3] = Stability experiment of compounds in human liver microsomes; assay type: in vitro ADME; settings: NADPH, 37° C., read-out: T1/2 in human liver microsomes
Method: Compounds were prepared as a 10 mM stock solution with DMSO and then diluted with 80% acetonitrile-water to a 100 μM working solution for later use. Human liver microsomes were obtained from BIOIVT.
(1) The liver microsomes taken out from the refrigerator were placed in a 37° C. water bath thermostatic oscillator, pre-incubated for 5 min, and thawed for later use.
(2) A certain amount of NADPH was weighed and added to an appropriate amount of magnesium chloride solution to dissolve into a 2 mM solution for later use.
(3) A mixed solution of the warm incubation system (containing no β-NADPH) was prepared according to the proportions in the “composition of the experimental warm incubation system” above and dispensed at 165 μL/tubes (45 μL/tube for the negative control group and 120 μL/tube for the positive control group).
(4) For the sample at 0 min: 200 μL of internal standard working precipitant was added and then 30 μL of NADPH solution was added.
(5) For other samples: 135 μL NADPH solution was added to initiate the reaction (45 μL magnesium chloride solution was added for the negative control group), and incubated in a 37° C. water bath for 5, 15, 30, and 60 min (incubated in a 37° C. water bath for 60 min for the negative control group), then 60 μL was sampled and added to 200 µL of precipitant containing internal standard.
(6) For the positive control group: 90 L NADPH solution was added to initiate the reaction, and incubated in a 37° C. water bath for 5, 15 min, then 60 μL was sampled and added to 200 μL of precipitant containing internal standard.
(7) For neat sample: 297 μL of water was pipetted into a tube, 1000 μL of internal standard working solution was added, and 3 μL of test compound working solution was added.
(8) All samples were vortexed and centrifuged.
(9) 150 μL of the supernatant was sampled and added to 150 μL of water, mixed uniformly by vortex, and analyzed by LC-MS/MS. The half-life stability data of human liver microsomes is as follows: […]

[4] = Binding rate test of compounds and human plasma protein (equilibrium dialysis); assay type: in vitro ADME; settings: human plasma, equilibrium dialysis 6 hours, 37° C.
Method: (1) The dry dialysis membrane was soaked with ultrapure water for 20 min or more than 20 min, then soaked with 20% ethanol for 30 min to 1 h, and the membrane was rinsed with ultrapure water 2-3 times. Finally, the membrane was soaked with ultrapure water for 20 minutes for later use.
(2) The frozen plasma was thawed in a water bath at 37° C.
(3) The test compound was diluted into plasma preheated to 37° C. at a final concentration of 1 μM, and the final concentration of the control compound warfarin in plasma was 2 μM.
(4) The pre-treated dialysis membrane was assembled into the dialysis plate according to the specification of the product, and 120 μL of the receiving solution (100 mM phosphate buffer solution added 0.002% Tween 80) was added to one side of the permeable membrane in each dialysis well.
(5) 20 μL of each of the final solutions of the test compound and the control compound were added into a 96-well sample plate in duplicate, and the TO sample was obtained, which was stored in a refrigerator at −20° C. Another 20 μL of the above final solution was added to the other side of the membrane in the dialysis device in duplicate, and incubated at 37° C. by shaking at constant temperature for 6 hours.
(6) After 6 hours of incubation, 20 L of each of the dialyzed receiving solution and the administered plasma were weighed to obtain sample B and sample A in duplicate. The corresponding volume of corresponding blank plasma or receiving solution was added to sample B and sample A, respectively, so that the volume ratio of plasma to buffer in each sample well was 1:1. 300 μL of acetonitrile solution containing internal standard was added to all sample wells, and centrifuged after mixed uniformly.
(7) 200 μL of ultrapure water (150 μL for the control group) was added into the corresponding sample wells of the 96-well sample plate, and 300 μL of the supernatant (150 μL for the control group) was added into the sample well; the samples were analyzed after mixed uniformly. The free percentage and recovery rate of the compound in plasma were calculated using the following formula: Plasma protein binding rate (%)=1−free percentage, wherein free percentage (%)=CB/CA
wherein CB is the concentration of the compound in the receiving solution after equilibrium dialysis, CA is the concentration of the compound in the drug-dosed plasma after equilibrium dialysis, and CT0 is the initial concentration of the compound in plasma.

MIApaca/FG2 cells = test: EC50 assay of small molecule activated γδ T cells to kill MIApaca/FG2 tumor cells (10-fold dilution protocol); assay type: cell-based
Method: γδT cells and MIApaca/FG2 tumor cell lines were expanded and cultured in vitro. The MIApaca/FG2 cells were digested, and the cells were counted and resuspended in DMEM complete medium, the density of the cell suspension was adjusted and added into a 96-well plate at 5×10^3 cells/50 μL/well for overnight incubation. On the next day, the test compound and the control compound were diluted at a 10-fold ratio with γδT complete medium. 50 μL of diluted compound was transferred to the corresponding wells which had been plated with tumor cells, and the actual detection concentration was in the range of 10^−12-10^−5 M. γδT cells were resuspended in γδT complete medium, and the density of the cell suspension was adjusted according to the effector-target ratio of E:T=2:1, and then the cells were added to the corresponding wells at 1×10^4 cells/50 μL/well. After co-culture at 37° C., 5% CO2 for 20 hours, the cells were centrifuged. The supernatant was removed, and 50 μL of cell lysate containing luciferin substrate was added to each well. After standing for 18 minutes in the dark, the signal of chemiluminescence was detected. The EC50 value was calculated by four-parameter fitting, with the corresponding signal value of the well with only tumor cells as the minimum killing value, and the corresponding signal value of the well without tumor cells as the maximum killing value. The killing data of MIApaca/FG2 cells is as follows: […]

[5] = Homo sapiens, MIA PaCa-2, γδT cells + MIApaca/FG2, E:T=2:1, co-culture 20 hours, 10^-12-10^-5 M, read-out: MIApaca killing (EC50)
[6] = read-out: MIApaca killing (EC50), γδT cells + MIApaca/FG2, E:T=2:1, co-culture 20 hours, 10^-12-10^-5 M

| Structure (SMILES) | pEC50 (MIApaca/FG2 cells; [5]) | pEC50 (MIApaca/FG2 cells; [6]) | also measured |
| --- | --- | --- | --- |
| C/C(=C\CCP(=O)(N[C@@H](C)C(=O)OCc1ccccc1)Oc1ccccc1)CO (some centres unmarked) [Control compound 2, reference compound] |  |  | AUC0-t/AUC0-inf ([1]; average): 0.974; concentration at 5 min ([1]; male, cynomolgus monkey, plasma, 5 min, read-out: Plasma concentration of the unchanged drug): 299 ng/mL; concentration at 9 min ([1]; male, cynomolgus monkey, plasma, 9 min, read-out: Plasma concentration of the unchanged drug): 49 ng/mL; concentration at 30 min ([1]; male, cynomolgus monkey, plasma, 30 min, read-out: Plasma concentration of the unchanged drug): 1 ng/mL; concentration at 1 h ([1]; male, cynomolgus monkey, plasma, 1 h, read-out: Plasma concentration of the unchanged drug): 3 ng/mL; AUC(0-t) ([1]; male, cynomolgus monkey, plasma, average, read-out: AUC0-t (AUClast)): 194 ng·h/mL; clearance ([1]; male, cynomolgus monkey, plasma, average, read-out: Cl (Cl_obs)): 418 mL/min/kg; half-life at 1 μM [2]: 2 h; half-life [3]: 1.4 min; fraction unbound at 6 h, 1 μM [4]: 0.027 |
| C/C(=C\COP(=O)(O)OP(=O)(O)O)CO [HMBPP control, reference compound] |  |  | pEC50 (MIApaca/FG2 cells; γδT cells + MIApaca/FG2, E:T=2:1, co-culture 20 hours, 10^-12-10^-5 M, read-out: MIApaca killing (EC50)): 8.68 |
| CC(C)OC(=O)[C@H](C)NP(=O)(OC/C=C(/CO)C(F)(F)F)Oc1ccccc1 (stereo partly drawn) [Compound 3, Isopropyl ((phenoxy)(((Z)-4,4,4-trifluoro-3-(hydroxymethyl)but-2-en-1-yl)oxy)phosphoryl)-L-alaninate] | 8.10 |  |  |
| CC(C)OC(=O)[C@H](C)NP(=O)(CCC=C(CO)CO)Oc1ccccc1 (stereo partly drawn) [Compound 1, Isopropyl ((5-hydroxy-4-(hydroxymethyl)pent-3-en-1-yl)(phenoxy)phosphoryl)-L-alaninate] |  | 7.24 |  |
| CCC(CC)COC(=O)[C@H](C)NP(=O)(OC/C=C(/CO)C(F)(F)F)Oc1ccccc1 (stereo partly drawn) [Compound 10, 2-Ethylbutyl ((phenoxy)(((Z)-4,4,4-trifluoro-3-(hydroxymethyl)but-2-en-1-yl)oxy)phosphoryl)-L-alaninate] | 7.89 |  |  |
| CC/C(=C\CCP(=O)(N[C@@H](C)C(=O)OC(C)C)Oc1ccccc1)CO (stereo partly drawn) [Compound 4, Isopropyl (((E)-5-hydroxy-4-ethylpent-3-en-1-yl)(phenoxy)phosphoryl)-L-alaninate] |  | 6.76 |  |
| CC(C)OC(=O)[C@H](C)NP(=O)(CC/C=C/CO)Oc1ccccc1 (stereo partly drawn) [Compound 5, Isopropyl (((E)-5-hydroxypent-3-en-1-yl)(phenoxy)phosphoryl)-L-alaninate] |  | 7.94 |  |
| C[C@H](NP(=O)(OC/C=C(/CO)C(F)(F)F)Oc1ccccc1)C(=O)OCC1CC1 (stereo partly drawn) [Compound 9, Cyclopropylmethyl ((phenoxy)(((Z)-4,4,4-trifluoro-3-(hydroxymethyl)but-2-en-1-yl)oxy)phosphoryl)-L-alaninate] | 8.00 |  |  |
| C[C@H](NP(=O)(OC/C=C(/CO)C(F)(F)F)Oc1ccccc1)C(=O)OC1CCCC1 (stereo partly drawn) [Compound 11, Cyclopentyl ((phenoxy)(((Z)-4,4,4-trifluoro-3-(hydroxymethyl)but-2-en-1-yl)oxy)phosphoryl)-L-alaninate] | 7.45 |  |  |
| CC(C)OC(=O)[C@H](C)NP(=O)(OC/C=C(/CO)C(F)(F)F)Oc1cccc2ccccc12 (stereo partly drawn) [Compound 14, isopropyl ((naphthyloxy)(((Z)-4,4,4-trifluoro-3-(hydroxymethyl)but-2-en-1-yl)oxy)phosphoryl)-L-alaninate] | 7.17 |  |  |
| C[C@H](NP(=O)(OC/C=C(/CO)C(F)(F)F)Oc1ccccc1)C(=O)O[C@H]1CCOC1 (stereo partly drawn) [Compound 12, (S)-tetrahydrofuran-3-yl ((phenoxy)(((Z)-4,4,4-trifluoro-3-(hydroxymethyl)but-2-en-1-yl)oxy)phosphoryl)-L-alaninate] | 8.29 |  |  |
| C/C(=C\CCP(=O)(N[C@@H](C)C(=O)OC1CCCC1)Oc1ccccc1)CO (stereo partly drawn) [Compound 6, Cyclopentyl (((E)-5-hydroxy-4-methylpent-3-en-1-yl)(phenoxy)phosphoryl)-L-alaninate] |  | 10.01 |  |
| C[C@H](NP(=O)(OC/C=C(/CO)C(F)(F)F)Oc1ccccc1)C(=O)O[C@@H]1CCOC1 (some centres unmarked) [Compound 13] | 8.18 |  |  |
| CCC(CC)COC(=O)[C@H](C)NP(=O)(CC/C=C(\C)CO)Oc1ccccc1 (stereo partly drawn) [Compound 2, 2-Ethylbutyl (((E)-5-hydroxy-4-methylpent-3-en-1-yl)(phenoxy)phosphoryl)-L-alaninate] |  | 9.72 |  |
